Results: PubChem BioAssay AID1963959 (Molecular Pharmacology Branch, DTP, NCI, 2024)

System: T-47D spheroids with HUVEC/MSC, viability
Assay: Anticancer human tumor T-47D cell line growth inhibition [PI3K];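 further: spheroids exposed to agents for seven days before reading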;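 on viability, T/C: percent of DMSO vehicle control luminescence so 100% = untreated growth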
Conditions: for IC50: curve of first compound; for viability, T/C: stronger effect = lower value
From the text: Combinatorial screen of targeted agents with the PI3K inhibitors inavolisib, alpelisib, duvelisib, and copanlisib in multi-cell type tumor spheroids
A high-throughput screen of multi-cell type tumor spheroids was designed to identify active combinations of targeted small molecules and PI3K pathway inhibitors. Complex spheroids include a stromal component modeled by human endothelial cells (HUVEC) and fibroblasts modeled by human mesenchymal stem cells (MSCs). The concentration ranges selected for each drug and investigational agent were based upon clinically achievable concentrations if the clinical Cmax of the agent was known.
Compounds. The drugs and investigational agents: inavolisib (NSC800729), alpelisib (NSC765974), duvelisib (NSC772469), copanlisib (NSC816437), ipatasertib (NSC767898), afuresertib (NSC778305), talazoparib (NSC767125), sapanisertib (NSC764658), selumetinib (NSC741078), tovorafenib (DAY101, NSC766906), vemurafenib (NSC761431), ravoxertinib (NSC781343), sotorasib (NSC818433), MRTX1133 (NSC 836407), abemaciclib (NSC 768073), palbociclib (NSC758247), venetoclax (NSC 766270), SY5609 (NSC837396), enzalutamide (NSC755605), and darolutamide (NSC825331), were obtained from the National Cancer Institute (NCI) Developmental Therapeutics Program Chemical Repository. The FDA-approved anticancer drug set is available from the NCI Developmental Therapeutics Program. […] The stock solutions were prepared in dimethyl sulfoxide (DMSO, Sigma-Aldrich, St. Louis, MO, cat. D2650) at 800-fold the tested concentration and stored at -70 degrees C prior to their use. All drugs and investigational agents were tested over a range starting from a high concentration at or near the clinical Cmax and decreasing in half-log increments. If the clinical Cmax for an agent had not been determined, the highest concentration tested was 10 microM.
Cell Culture. All cells were maintained in an incubator at 37 degrees C and 5% CO2 with 95% humidity. The PDC lines were cultured according to standard operating procedures established by the NCI PDMR (https://pdmr.cancer.gov/sops/default.htm). All PDCs were thawed and cultured in Matrigel-coated flasks prepared with a working solution of 1X Ham's F-12 nutrient mix, without supplementation (Invitrogen, Waltham, MA, cat. 11765054), 100 U/mL penicillin-streptomycin (Invitrogen, cat. 15140122), and 2.5% Matrigel (Corning Inc., Corning, NY, cat. 354248) for the first three passages. The 354836-022-R-J1-PDC, 475296-252-R-J1-PDC, and 997726-040-R-J2-PDC lines were cultured in 6A media, which includes advanced DMEM/F-12 (Thermo Fisher Scientific, cat. 12634028), 10 mM HEPES (Thermo Fisher Scientific, cat. 15630080), 1X GlutaMAX supplement (Thermo Fisher Scientific, cat. 35050061), 0.1 mg/mL primocin (InvivoGen, San Diego, CA, cat. ant-pm-2), 10% defined fetal bovine serum, heat inactivated (HyClone Laboratories Inc., Logan, UT, cat. SH30070.03HI), 50% L-WRN conditioned media (ATCC, cat. CRL-3276), 1.25 mM N-Acetyl-L-cysteine (Sigma-Aldrich, cat. A9165), 10 mM nicotinamide (Sigma-Aldrich, cat. N0636), 1X B-27 supplement (Thermo Fisher Scientific, cat. 17504044), 1X N-2 supplement (Thermo Fisher Scientific, cat. 17502048), and 10 microM Y-27632 dihydrochloride (Tocris Bioscience, Bristol, United Kingdom, cat. 1254). The 624824-186-R-J2-PDC line was cultured in 6C/Colon 1B media, which includes all 6A media components plus 50 ng/mL human EGF recombinant protein (Thermo Fisher Scientific, cat. PHG0311). […]

For CNC(=O)c1ccc(N2C(=S)N(c3ccc(C#N)c(C(F)(F)F)c3)C(=O)C2(C)C)cc1F + CC(Nc1ccc2c(c1)OCCn1cc(N3C(=O)OCC3C(F)F)nc1-2)C(N)=O, the IC50 (second compound 0.00316 µM) was greater than 10 µM, the IC50 (second compound 0.01 µM) was greater than 10 µM and the IC50 (second compound 0.0316 µM) was greater than 10 µM. The IC50 (second compound 0.1 µM) was greater than 10 µM, the IC50 (second compound 0.316 µM) was greater than 10 µM and the IC50 (second compound 1 µM) was greater than 10 µM. The viability, T/C (second compound 0.00316 µM, first compound 0.0316 µM) was 120%, the viability, T/C (second compound 0.00316 µM, first compound 0.1 µM) was 98.2% and the viability, T/C (second compound 0.00316 µM, first compound 0.316 µM) was 104%. For the same compound, the viability, T/C (second compound 0.00316 µM, first compound 1 µM) was 81.5%, the viability, T/C (second compound 0.00316 µM, first compound 3.16 µM) was 104% and the viability, T/C (second compound 0.00316 µM, first compound 10 µM) was 88.3%. It also gave a viability, T/C (second compound 0.01 µM, first compound 0.0316 µM) of 105%, a viability, T/C (second compound 0.01 µM, first compound 0.1 µM) of 91.5% and a viability, T/C (second compound 0.01 µM, first compound 0.316 µM) of 88.2%. For the same compound, the viability, T/C (second compound 0.01 µM, first compound 1 µM) was 82.3%, the viability, T/C (second compound 0.01 µM, first compound 3.16 µM) was 91.2% and the viability, T/C (second compound 0.01 µM, first compound 10 µM) was 95.5%. It also gave a viability, T/C (second compound 0.0316 µM, first compound 0.0316 µM) of 103%, a viability, T/C (second compound 0.0316 µM, first compound 0.1 µM) of 95% and a viability, T/C (second compound 0.0316 µM, first compound 0.316 µM) of 87.1%. The viability, T/C (second compound 0.0316 µM, first compound 1 µM) was 77.2%, the viability, T/C (second compound 0.0316 µM, first compound 3.16 µM) was 91.2% and the viability, T/C (second compound 0.0316 µM, first compound 10 µM) was 90.9%. For the same compound, the viability, T/C (second compound 0.1 µM, first compound 0.0316 µM) was 94.7%, the viability, T/C (second compound 0.1 µM, first compound 0.1 µM) was 82.2% and the viability, T/C (second compound 0.1 µM, first compound 0.316 µM) was 99.7%. For the same compound, the viability, T/C (second compound 0.1 µM, first compound 1 µM) was 86.7%, the viability, T/C (second compound 0.1 µM, first compound 3.16 µM) was 90.2% and the viability, T/C (second compound 0.1 µM, first compound 10 µM) was 72.5%. For the same compound, the viability, T/C (second compound 0.316 µM, first compound 0.0316 µM) was 71.9%, the viability, T/C (second compound 0.316 µM, first compound 0.1 µM) was 79% and the viability, T/C (second compound 0.316 µM, first compound 0.316 µM) was 75.2%. For the same compound, the viability, T/C (second compound 0.316 µM, first compound 1 µM) was 71%, the viability, T/C (second compound 0.316 µM, first compound 3.16 µM) was 64.3% and the viability, T/C (second compound 0.316 µM, first compound 10 µM) was 60.6%. It also gave a viability, T/C (second compound 1 µM, first compound 0.0316 µM) of 61%, a viability, T/C (second compound 1 µM, first compound 0.1 µM) of 68% and a viability, T/C (second compound 1 µM, first compound 0.316 µM) of 58.8%. For the same compound, the viability, T/C (second compound 1 µM, first compound 1 µM) was 60.4%, the viability, T/C (second compound 1 µM, first compound 3.16 µM) was 56.2% and the viability, T/C (second compound 1 µM, first compound 10 µM) was 48.8%.

Cn1cnc2c(F)c(Nc3ccc(Br)cc3Cl)c(C(=O)NOCCO)cc21 + CC(Nc1ccc2c(c1)OCCn1cc(N3C(=O)OCC3C(F)F)nc1-2)C(N)=O gave an IC50 (second compound 0.00316 µM) greater than 3 µM, an IC50 (second compound 0.01 µM) greater than 3 µM and an IC50 (second compound 0.0316 µM) greater than 3 µM. It also gave an IC50 (second compound 0.1 µM) greater than 3 µM, an IC50 (second compound 0.316 µM) greater than 3 µM and an IC50 (second compound 1 µM) of 0.294 µM. For the same compound, the viability, T/C (second compound 0.00316 µM, first compound 0.00949 µM) was 105%, the viability, T/C (second compound 0.00316 µM, first compound 0.03 µM) was 84.7% and the viability, T/C (second compound 0.00316 µM, first compound 0.0949 µM) was 99.8%. For the same compound, the viability, T/C (second compound 0.00316 µM, first compound 0.3 µM) was 91.8%, the viability, T/C (second compound 0.00316 µM, first compound 0.949 µM) was 86.1% and the viability, T/C (second compound 0.00316 µM, first compound 3 µM) was 79.2%. The viability, T/C (second compound 0.01 µM, first compound 0.00949 µM) was 97.5%, the viability, T/C (second compound 0.01 µM, first compound 0.03 µM) was 80.4% and the viability, T/C (second compound 0.01 µM, first compound 0.0949 µM) was 96.1%. It also gave a viability, T/C (second compound 0.01 µM, first compound 0.3 µM) of 98.8%, a viability, T/C (second compound 0.01 µM, first compound 0.949 µM) of 82.3% and a viability, T/C (second compound 0.01 µM, first compound 3 µM) of 88.5%. It also gave a viability, T/C (second compound 0.0316 µM, first compound 0.00949 µM) of 95.5%, a viability, T/C (second compound 0.0316 µM, first compound 0.03 µM) of 80.5% and a viability, T/C (second compound 0.0316 µM, first compound 0.0949 µM) of 101%. The viability, T/C (second compound 0.0316 µM, first compound 0.3 µM) was 96.6%, the viability, T/C (second compound 0.0316 µM, first compound 0.949 µM) was 97.8% and the viability, T/C (second compound 0.0316 µM, first compound 3 µM) was 86.4%. The viability, T/C (second compound 0.1 µM, first compound 0.00949 µM) was 85.6%, the viability, T/C (second compound 0.1 µM, first compound 0.03 µM) was 86.1% and the viability, T/C (second compound 0.1 µM, first compound 0.0949 µM) was 83.5%. The viability, T/C (second compound 0.1 µM, first compound 0.3 µM) was 90.2%, the viability, T/C (second compound 0.1 µM, first compound 0.949 µM) was 86.5% and the viability, T/C (second compound 0.1 µM, first compound 3 µM) was 83.8%. It also gave a viability, T/C (second compound 0.316 µM, first compound 0.00949 µM) of 71.3%, a viability, T/C (second compound 0.316 µM, first compound 0.03 µM) of 75.3% and a viability, T/C (second compound 0.316 µM, first compound 0.0949 µM) of 70.3%. The viability, T/C (second compound 0.316 µM, first compound 0.3 µM) was 66.5%, the viability, T/C (second compound 0.316 µM, first compound 0.949 µM) was 71.8% and the viability, T/C (second compound 0.316 µM, first compound 3 µM) was 61.1%. It also gave a viability, T/C (second compound 1 µM, first compound 0.00949 µM) of 54%, a viability, T/C (second compound 1 µM, first compound 0.03 µM) of 56.8% and a viability, T/C (second compound 1 µM, first compound 0.0949 µM) of 59.2%. The viability, T/C (second compound 1 µM, first compound 0.3 µM) was 49.7%, the viability, T/C (second compound 1 µM, first compound 0.949 µM) was 47.8% and the viability, T/C (second compound 1 µM, first compound 3 µM) was 52.2%.
